{"source": "ChEMBL document CHEMBL5053536", "about": "“Discovery of Quinazoline-2,4(1H,3H)-dione Derivatives Containing 3-Substituted Piperizines as Potent PARP-1/2 Inhibitors─Design, Synthesis, In Vivo Antitumor Activity, and X-ray Crystal Structure Analysis” (J Med Chem, 2021)", "key": {"U-87 MG [1]": {"system": "U-87 MG", "assay": "Antitumor activity against human U-87MG cells xenografted in BALB/c mouse assessed as reduction in tumor volume at 50 mg/kg, po administered once daily for 5 days and measured on day 8 in presence of 30 mg/kg TMZ by MRI scanner (reference value: 202 +/- 120.4 mm3)", "type": "functional, U-87MG ATCC", "conditions": "time 8 day"}, "U-251 [2]": {"system": "U-251", "assay": "Inhibition of PARP1/2-mediated DNA repair in human U-251 cells assessed as reduction in PAR formation at 1 to 10 uM after 24 hrs in absence of TMZ by Western blot analysis", "type": "cell-based", "conditions": "dose 1-10 µM"}, "[3]": {"assay": "Tmax in Sprague-Dawley rat at 20 mg/kg, po measured upto 24 hrs by LC-MS/MS analysis", "type": "ADME, organism-based", "conditions": "in vivo"}, "T98G": {"system": "T98G", "assay": "Cytotoxicity against human T98G cells assessed as reduction in cell viability at 5 to 10 uM incubated for 72 hrs in presence of TMZ by MTT assay", "type": "functional, cell-based", "conditions": "dose 5-10 µM"}, "U-87 MG [4]": {"system": "U-87 MG", "assay": "Antitumor activity against human U-87MG cells xenografted in BALB/c mouse assessed as reduction in tumor volume at 50 mg/kg, po administered once daily for 5 days and measured on day 8 by MRI scanner (reference value: 202 +/- 120.4 mm3)", "type": "functional, U-87MG ATCC", "conditions": "time 8 day"}, "[5]": {"assay": "MRT(0 to infinity) in BALB/c mouse at 25 mg/kg, po measured upto 24 hrs by LC-MS/MS analysis", "type": "ADME, organism-based", "conditions": "in vivo"}, "[6]": {"assay": "MRT(0 to infinity) in Beagle dog at 20 mg/kg, po measured upto 24 hrs by LC-MS/MS analysis", "type": "ADME, organism-based, Canis lupus familiaris", "conditions": "in vivo"}, "U-251 [7]": {"system": "U-251", "assay": "Cytotoxicity against TMZ-resistant human U-251 cells assessed as reduction in cell viability at 5 to 10 uM incubated for 72 hrs in presence of TMZ by MTT assay", "type": "functional, cell-based", "conditions": "dose 5-10 µM"}, "Mus musculus [8]": {"system": "Mus musculus", "assay": "Toxicity in BALB/c mouse xenografted with human U-87MG cells assessed as effect on body weight at 50 mg/kg, po administered once daily for 5 days and measured on day 8 (reference value: 18.2 +/- 0.6 g)", "type": "organism-based", "conditions": "in vivo, 192 h, time 8 day"}, "[9]": {"assay": "AUC(0 to infinity) in Beagle dog at 0.4 mg/kg, iv measured upto 24 hrs by LC-MS/MS analysis", "type": "ADME, organism-based, Canis lupus familiaris", "design": "dose 0.4 mg/kg, time < 24 hrs, route iv", "conditions": "in vivo"}, "[10]": {"assay": "AUC(0 to t) in Sprague-Dawley rat at 20 mg/kg, po measured upto 24 hrs by LC-MS/MS analysis", "type": "ADME, organism-based", "design": "time < 24 hrs, dose 20 mg/kg, route po", "conditions": "in vivo"}, "[11]": {"assay": "Cmax in Beagle dog at 0.4 mg/kg, iv measured upto 24 hrs by LC-MS/MS analysis", "type": "ADME, organism-based, Canis lupus familiaris", "design": "time < 24 hrs, dose 0.4 mg/kg, route iv", "conditions": "in vivo"}, "[12]": {"assay": "Half life in Beagle dog at 20 mg/kg, po measured upto 24 hrs by LC-MS/MS analysis", "type": "ADME, organism-based, Canis lupus familiaris", "conditions": "in vivo"}, "A 172": {"system": "A 172", "assay": "Cytotoxicity against human A172 cells assessed as reduction in cell viability at 5 to 10 uM incubated for 72 hrs in presence of TMZ by MTT assay", "type": "functional, cell-based", "conditions": "dose 5-10 µM"}, "MX1 [13]": {"system": "MX1", "assay": "Antitumor activity against human MX1 cells xenografted in athymic nu/nu mouse assessed as tumor growth inhibition at 12.5 to 25 mg/kg, po administered once daily for 5 days and measured on day 7 in presence of 50 mg/kg TMZ", "type": "functional", "conditions": "dose 12.5-25 mg/kg, time 7 day"}, "[14]": {"assay": "Cmax in Beagle dog at 20 mg/kg, po measured upto 24 hrs by LC-MS/MS analysis", "type": "ADME, organism-based, Canis lupus familiaris", "design": "time < 24 hrs, dose 20 mg/kg, route po", "conditions": "in vivo"}, "U-87 MG [15]": {"system": "U-87 MG", "assay": "Antitumor activity against human U-87MG cells xenografted in BALB/c mouse assessed as reduction in tumor volume at 25 mg/kg, po administered once daily for 5 days and measured on day 8 in presence of 30 mg/kg TMZ by MRI scanner (reference value: 202 +/- 120.4 mm3)", "type": "functional, U-87MG ATCC", "conditions": "time 8 day"}, "U-87 MG [16]": {"system": "U-87 MG", "assay": "Antitumor activity against human U-87MG cells xenografted in BALB/c mouse assessed as reduction in tumor volume at 50 mg/kg, po administered once daily for 5 days and measured on day 32 in presence of 30 mg/kg TMZ by MRI scanner", "type": "functional, U-87MG ATCC", "conditions": "time 32 day"}, "U-87 MG [17]": {"system": "U-87 MG", "assay": "Cytotoxicity against human U87MG cells assessed as reduction in cell viability at 5 to 10 uM incubated for 72 hrs in presence of TMZ by MTT assay", "type": "functional, cell-based", "conditions": "U-87MG ATCC, dose 5-10 µM"}, "[18]": {"assay": "Acute toxicity in po dosed Crl: […](ICR)-BR mouse after 14 days", "type": "organism-based", "conditions": "in vivo, time 14 day"}, "[19]": {"assay": "Tmax in BALB/c mouse at 25 mg/kg, po measured upto 24 hrs by LC-MS/MS analysis", "type": "ADME, organism-based", "conditions": "in vivo"}, "[20]": {"biological_target": "Poly [ADP-ribose] polymerase 1 (Homo sapiens, UniProt P09874)", "sequence (P09874 whole entry)": "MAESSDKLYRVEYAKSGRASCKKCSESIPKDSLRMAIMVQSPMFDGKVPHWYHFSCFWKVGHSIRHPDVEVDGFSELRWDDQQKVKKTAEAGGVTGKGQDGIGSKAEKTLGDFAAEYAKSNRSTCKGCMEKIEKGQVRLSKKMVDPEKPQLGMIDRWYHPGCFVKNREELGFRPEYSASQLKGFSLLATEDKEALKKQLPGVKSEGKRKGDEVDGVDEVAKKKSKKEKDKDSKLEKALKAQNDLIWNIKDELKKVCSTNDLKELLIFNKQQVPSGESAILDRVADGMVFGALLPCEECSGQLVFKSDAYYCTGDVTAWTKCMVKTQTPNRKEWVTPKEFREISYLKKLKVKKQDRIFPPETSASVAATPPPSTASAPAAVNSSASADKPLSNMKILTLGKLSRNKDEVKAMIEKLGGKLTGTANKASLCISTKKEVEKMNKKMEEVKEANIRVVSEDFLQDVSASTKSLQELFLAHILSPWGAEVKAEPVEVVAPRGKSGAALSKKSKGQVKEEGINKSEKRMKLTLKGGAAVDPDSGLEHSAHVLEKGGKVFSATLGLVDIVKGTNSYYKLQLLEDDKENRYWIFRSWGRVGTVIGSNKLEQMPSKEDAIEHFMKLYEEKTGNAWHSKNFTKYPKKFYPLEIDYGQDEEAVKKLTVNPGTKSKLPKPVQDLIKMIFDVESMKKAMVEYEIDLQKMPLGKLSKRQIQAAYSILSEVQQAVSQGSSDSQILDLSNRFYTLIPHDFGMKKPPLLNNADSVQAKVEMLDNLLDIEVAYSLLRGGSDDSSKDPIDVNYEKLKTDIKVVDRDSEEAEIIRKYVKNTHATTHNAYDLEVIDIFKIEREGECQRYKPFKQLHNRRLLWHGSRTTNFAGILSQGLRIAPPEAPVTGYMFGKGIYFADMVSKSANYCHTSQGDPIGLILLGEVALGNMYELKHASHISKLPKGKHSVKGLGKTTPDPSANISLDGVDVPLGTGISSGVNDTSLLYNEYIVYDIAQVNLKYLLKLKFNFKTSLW", "assay": "Binding affinity to recombinant human PARP1 assessed as dissociation constant by SPR assay"}, "MX1 [21]": {"system": "MX1", "assay": "Antitumor activity against human MX1 cells xenografted in athymic nu/nu mouse assessed as tumor growth inhibition at 12.5 mg/kg, po administered once daily for 5 days and measured on day 17 in presence of 50 mg/kg TMZ", "type": "functional", "conditions": "MX1, 408 h, time 17 day, read-out: TGI"}, "U-87 MG [22]": {"system": "U-87 MG", "assay": "Antitumor activity against human U-87MG cells xenografted in BALB/c mouse assessed as tumor growth inhibition at 50 mg/kg, po administered once daily for 5 days and measured upto 32 days in presence of 30 mg/kg TMZ by MRI scanner", "type": "functional, U-87MG ATCC", "conditions": "768 h, time <= 32 day, read-out: TGI"}, "[23]": {"assay": "MRT(0 to infinity) in Beagle dog at 0.4 mg/kg, iv measured upto 24 hrs by LC-MS/MS analysis", "type": "ADME, organism-based, Canis lupus familiaris", "conditions": "in vivo"}, "U-87 MG [24]": {"system": "U-87 MG", "assay": "Antitumor activity against human U-87MG cells xenografted in BALB/c mouse assessed as T/C ratio at 25 mg/kg, po administered once daily for 5 days and measured upto 32 days in presence of 30 mg/kg TMZ by MRI scanner", "type": "functional, U-87MG ATCC", "conditions": "time <= 32 day"}, "[25]": {"assay": "AUC(0 to infinity) in Sprague-Dawley rat at 20 mg/kg, po measured upto 24 hrs by LC-MS/MS analysis", "type": "ADME, organism-based", "design": "time < 24 hrs, dose 20 mg/kg, route po", "conditions": "in vivo"}, "U-251 [26]": {"system": "U-251", "assay": "Inhibition of PARP1/2-mediated DNA repair in human U-251 cells assessed as increase in […] expression at 1 to 10 uM after 24 hrs in presence of TMZ by Western blot analysis", "type": "cell-based", "conditions": "dose 1-10 µM"}, "[27]": {"assay": "AUC(0 to infinity) in BALB/c mouse at 25 mg/kg, po measured upto 24 hrs by LC-MS/MS analysis", "type": "ADME, organism-based", "design": "time < 24 hrs, dose 25 mg/kg, route po", "conditions": "in vivo"}, "[28]": {"assay": "MRT(0 to t) in BALB/c mouse at 25 mg/kg, po measured upto 24 hrs by LC-MS/MS analysis", "type": "ADME, organism-based", "conditions": "in vivo"}, "[29]": {"assay": "Half life in BALB/c mouse at 25 mg/kg, po measured upto 24 hrs by LC-MS/MS analysis", "type": "ADME, organism-based", "conditions": "in vivo"}, "Mus musculus [30]": {"system": "Mus musculus", "assay": "Toxicity in BALB/c mouse xenografted with human U-87MG cells assessed as effect on body weight at 25 mg/kg, po administered once daily for 5 days and measured on day 8 in presence of 30 mg/kg TMZ (reference value: 18.8 +/- 0.7 g)", "type": "organism-based", "conditions": "in vivo, 192 h, time 8 day"}, "[31]": {"assay": "AUC(0 to t) in BALB/c mouse at 25 mg/kg, po measured upto 24 hrs by LC-MS/MS analysis", "type": "ADME, organism-based", "design": "dose 25 mg/kg, time < 24 hrs, route po", "conditions": "in vivo"}, "[32]": {"assay": "Cmax in BALB/c mouse at 25 mg/kg, po measured upto 24 hrs by LC-MS/MS analysis", "type": "ADME, organism-based", "design": "time < 24 hrs, dose 25 mg/kg, route po", "conditions": "in vivo"}}, "note": "Activity calls are given as the source filed them. The rule behind the calls is not given here.", "data": [{"smiles": "CC[C@@H]1CN(C(=O)c2cc(Cn3c(=O)[nH]c(=O)c4ccccc43)ccc2F)CCN1CC", "values": [{"measurement": "Activity", "setting": "U-87 MG [1]", "result": 0, "unit": "mm3"}, {"measurement": "inhibition", "setting": "U-251 [2]", "result": "Active"}, {"measurement": "Tmax", "setting": "[3]", "result": 4.98, "unit": "min"}, {"measurement": "Activity", "setting": "T98G", "result": "Active"}, {"measurement": "Activity", "setting": "U-87 MG [4]", "result": 218.6, "unit": "mm3"}, {"measurement": "MRT inf", "setting": "[5]", "result": 63, "unit": "min"}, {"measurement": "MRT inf", "setting": "[6]", "result": 291, "unit": "min"}, {"measurement": "Activity", "setting": "U-251 [7]", "result": "Active"}, {"measurement": "Activity", "setting": "Mus musculus [8]", "result": 15.3, "unit": "g"}, {"measurement": "AUC(0-inf)", "setting": "[9]", "result": 1430, "unit": "ng·h/mL"}, {"measurement": "AUC(0-t) at 24 h", "setting": "[10]", "result": 330, "unit": "ng·h/mL"}, {"measurement": "Cmax", "setting": "[11]", "result": 1250, "unit": "ng/mL"}, {"measurement": "half-life", "setting": "[12]", "result": 227, "unit": "min"}, {"measurement": "Activity", "setting": "A 172", "result": "Active"}, {"measurement": "TGI", "setting": "MX1 [13]", "result": ">90", "unit": "%"}, {"measurement": "Cmax", "setting": "[14]", "result": 6440, "unit": "ng/mL"}, {"measurement": "Activity", "setting": "U-87 MG [15]", "result": 0, "unit": "mm3"}, {"measurement": "Activity", "setting": "U-87 MG [16]", "result": 11.9, "unit": "mm3"}, {"measurement": "Activity", "setting": "U-87 MG [17]", "result": "Active"}, {"measurement": "LD50 at 336 h", "setting": "[18]", "result": 3500, "unit": "mg/kg"}, {"measurement": "Tmax", "setting": "[19]", "result": 30, "unit": "min"}, {"measurement": "Kd", "setting": "[20]", "result": 1.92, "unit": "nM"}, {"measurement": "inhibition in vivo at 12.5 mg/kg", "setting": "MX1 [21]", "result": 71.5, "unit": "%"}, {"measurement": "inhibition in vivo at 50 mg/kg", "setting": "U-87 MG [22]", "result": 85.9, "unit": "%"}, {"measurement": "MRT inf", "setting": "[23]", "result": 85.8, "unit": "min"}, {"measurement": "T/C", "setting": "U-87 MG [24]", "result": 12.1, "unit": "%"}, {"measurement": "AUC(0-inf)", "setting": "[25]", "result": 338, "unit": "ng·h/mL"}, {"measurement": "inhibition", "setting": "U-251 [26]", "result": "Active"}, {"measurement": "AUC(0-inf)", "setting": "[27]", "result": 593, "unit": "ng·h/mL"}, {"measurement": "MRT last at 24 h", "setting": "[28]", "result": 55.2, "unit": "min"}, {"measurement": "half-life", "setting": "[29]", "result": 34.2, "unit": "min"}, {"measurement": "Activity", "setting": "Mus musculus [30]", "result": 18.2, "unit": "g"}, {"measurement": "AUC(0-t) at 24 h", "setting": "[31]", "result": 555, "unit": "ng·h/mL"}, {"measurement": "Cmax", "setting": "[32]", "result": 399, "unit": "ng/mL"}]}]}
